Values quoted from earlier work in patent US20070105758A1 (priority 2005, published 2007).

Conditions: oral route in sensitive individuals

NCCc1c[nH]cn1 [histamine]
histamine concentration known to be biologically active: > 5 nM
